Data reported in patent US6528488B2, “Method for treating cystic fibrosis” (priority 1999, dated 2003).
Values joined by “and” are separate entries in the source; they are usually repeats but may differ in a detail not shown here. Identical values can stand only once. Like-named read-outs stand apart in the source and are kept apart here. Ends that are not written are not given here.

Tests used:
P. aeruginosa [1] = assay type: cell-based; details: for cfu/plate: replicate plates; for efficacy in killing P. aeruginosa: Table 3, summary in words; for activity against P. aeruginosa: Example 5, FIG. 4
Experimental: The standard procedure used for testing activity was incubation of the bacterial strain with the peptide for one hour at 37° C., followed by plating at two dilutions. Peptides having the following amino acid sequences (including P-113, as in Example 4) were tested for activity against P. aeruginosa under the conditions described above: P-113 and […] were tested against P. aeruginosa under the conditions described in the preceding examples. The dilution values were as follows: expected-2000 cfu/plate (in broth) from dilution A. A=1/2.5×dilution; plate 50 μl. B=1/2.5×dilution; plate 25 μl.

P. aeruginosa [2] = assay type: cell-based; details: ATCC strains and clinical CF isolates of Table 2 (assays D and A)
Experimental: These Pseudomonas clinical isolates, as well as a variety of Pseudomonas ATCC strains, were tested for their susceptibility to the histatin derivative having the sequence Ala-Lys-Arg-His-His-Gly-Tyr-Lys-Arg-Lys-Phe- His-NH2 (SEQ ID NO: 1) (P-113). P-113 was used at a concentration of 100 μg/mL to […]. P. aeruginosa ATCC 27853 was used as a control in each assay. The ATCC strains were tested using Direct Antibacterial Assay SOP 98-020; the clinical isolates were tested using either the Direct Antibacterial Assay (D) or Alamar Blue Antimicrobial/Antifungal Assay SOP 96-018 (A).
The Direct Assay is an MIC test in microtiter plate format in which cells resuspended in LM broth are exposed to two-fold dilutions of P-113, and the cell density is determined directly after an overnight incubation. Cells are inoculated onto a blood agar plate and incubated for 18 hours at 37° C., and then stored at room temperature for use later in the day. Cells are resuspended and diluted based on the optical density to a final concentration of 5×10^5 per ml in LM broth containing two-fold dilutions of antibiotics. After 16-18 hours at 37° C., the optical density is measured with a Molecular Devices Thermonix plate reader. A reading of ˜0.3 over background is observed for cells grown in the absence of drug. Readings<0.01 correlated with no visible growth. […]

Molecule: C[C@H](NC(=O)[C@H](Cc1c[nH]cn1)NC(=O)[C@H](CO)NC(=O)[C@@H](N)CC(=O)O)C(=O)N[C@@H](CCCCN)C(=O)N[C@@H](CCCNC(=N)N)C(=O)N[C@@H](Cc1c[nH]cn1)C(=O)N[C@@H](Cc1c[nH]cn1)C(=O)NCC(=O)N[C@@H](Cc1ccc(O)cc1)C(=O)N[C@@H](CCCCN)C(=O)N[C@@H](CCCNC(=N)N)C(=O)N[C@@H](CCCCN)C(=O)N[C@@H](Cc1ccccc1)C(=O)N[C@@H](Cc1c[nH]cn1)C(=O)N[C@@H](CCC(=O)O)C(=O)N[C@@H](CCCCN)C(=O)N[C@@H](Cc1c[nH]cn1)C(=O)N[C@@H](Cc1c[nH]cn1)C(=O)N[C@@H](CO)C(=O)N[C@@H](Cc1c[nH]cn1)C(=O)N[C@@H](CCCNC(=N)N)C(=O)NCC(=O)N[C@@H](Cc1ccc(O)cc1)C(=O)O [His-5, histatin 5, reference compound]
- cfu/plate (P. aeruginosa [1]; 0.5 μM, dilution A): 150 cfu/plate and 164 cfu/plate
- cfu/plate (P. aeruginosa [1]; 0.5 μM, dilution B): 90 cfu/plate and 96 cfu/plate
- cfu/plate (P. aeruginosa [1]; 5 μM, dilution A): 143 cfu/plate and 159 cfu/plate
- cfu/plate (P. aeruginosa [1]; 5 μM, dilution B): 73 cfu/plate and 68 cfu/plate
- cfu/plate (P. aeruginosa [1]; 200 μM, dilution A): 0 cfu/plate
- cfu/plate (P. aeruginosa [1]; 200 μM, dilution B): 0 cfu/plate
- efficacy in killing P. aeruginosa (P. aeruginosa [1]): effective in killing these bacteria

Molecule: AKRHHGYKRKFH-NH2 [P-113, Ala-Lys-Arg-His-His-Gly-Tyr-Lys-Arg-Lys-Phe- His-NH2]
- effectiveness against the Pseudomonas strains tested (P. aeruginosa [2]): effective against nearly all of the Pseudomonas strains tested
- cfu/plate (P. aeruginosa [1]; 5 μM as printed, second P-113 5 μM line (after His-5 0.5 μM), dilution A): 133 cfu/plate and 170 cfu/plate
- cfu/plate (P. aeruginosa [1]; 5 μM as printed, second P-113 5 μM line (after His-5 0.5 μM), dilution B): 88 cfu/plate and 85 cfu/plate
- cfu/plate (P. aeruginosa [1]; 50 μM, dilution A): 0 cfu/plate
- cfu/plate (P. aeruginosa [1]; 200 μM, dilution A): 0 cfu/plate
- cfu/plate (P. aeruginosa [1]; 200 μM, dilution B): 0 cfu/plate
- activity against P. aeruginosa (P. aeruginosa [1]): very active
- efficacy in killing P. aeruginosa (P. aeruginosa [1]): greater efficacy than His-5

Molecule: Ala-Gln-Arg-His-His- Gly-Tyr-Lys-Arg-Gln-Phe-His-NH2 (AQRHHGYKRQFH-NH2) [P-113 Q2.10]
- activity against P. aeruginosa (P. aeruginosa [1]): very active

Molecule: Ala-Gln-Gln-His-His-Gly-Tyr- Lys-Gln-Gln-Phe-His-NH2 (AQQHHGYKQQFH-NH2) [P-113 Q2.3.9.10]
- activity against P. aeruginosa (P. aeruginosa [1]): inactive

Molecule: Ala-Lys-Arg- Tyr-Tyr-Gly-Tyr-Lys-Arg-Lys-Phe-Tyr-NH2 (AKRYYGYKRKFY-NH2) [P-113 Y4.5.12]
- activity against P. aeruginosa (P. aeruginosa [1]): very active

Molecule: Ala-Lys-Arg-Leu- Leu-Gly-Tyr-Lys-Arg-Lys-Phe-Leu-NH2 (AKRLLGYKRKFL-NH2) [P-113 L4.5.12]
- activity against P. aeruginosa (P. aeruginosa [1]): also active

Molecule: Ala-Lys-Gln-His-His-Gly- Tyr-Lys-Gln-Lys-Phe-His-NH2 (AKQHHGYKQKFH-NH2) [P-113 Q3.9]
- activity against P. aeruginosa (P. aeruginosa [1]): also active
